Consider 20 compounds from US9604940B2 (Chroma Therapeutics Ltd., priority 2012, dated 2017).

Structures are written as SMILES.

One assay addresses T1, CSF1R (FMS) (Homo sapiens, UniProt P07333).
T1 construct: purchased Invitrogen (Paisley, UK)
Description: CSF1R (FMS) kinase activity, Z'-LYTE biochemical assay (Invitrogen). To be noted: ATP at or close to Km, 60 minute reaction at room temperature, read-out: Inhibitor activity versus CSF-1. How it is done:
CSF1R (FMS) Kinase Activity
The ability of compounds to inhibit CSF1R (FMS) kinase activity was measured in an assay performed by Invitrogen (Paisley, UK). The Z′-LYTE™ biochemical assay employs a fluorescence-based, coupled-enzyme format and is based on the differential sensitivity of phosphorylated and non-phosphorylated peptides to proteolytic cleavage. The peptide substrate is labelled with two fluorophores—one at each end—that make up a FRET pair. In the primary reaction, the kinase transfers the gamma-phosphate of ATP to a single […] residue in a synthetic FRET-peptide. In the secondary reaction, a site-specific protease recognizes and cleaves non-phosphorylated FRET-peptides. Phosphorylation of FRET-peptides suppresses cleavage by the Development Reagent. Cleavage disrupts FRET between the donor (i.e. coumarin) and acceptor (i.e. fluorescein) fluorophores on the FRET-peptide, whereas uncleaved, phosphorylated FRET-peptides maintain FRET. A […] method, which calculates the ratio (the Emission Ratio) of donor emission to acceptor emission after excitation of the donor fluorophore at 400 nm, is used to quantitate reaction progress.
The final 10 μL Kinase Reaction consists of 0.12-12.3 ng CSF1R (FMS), 2 μM Tyr 01 Peptide and ATP in 50 mM HEPES pH 7.5, 0.01% BRIJ-35, 10 mM MgCl2, 1 mM EGTA. The assay is performed at an ATP concentration at, or close to, the Km. After the 60 minute Kinase Reaction incubation at room temperature, 5 μL of a 1:256 dilution of Development Reagent is added. The assay plate is incubated for a further 60 minutes at room temperature and read on a fluorescence plate reader.
Duplicate data points are generated from a ⅓ log dilution series of a stock solution of test compound in DMSO. Nine dilutions steps are made from a top concentration of 10 mM, and a ‘no compound’ blank is included. Data is collected and analysed using XLfit software from IDBS. The dose response curve is curve fitted to model number 205 (sigmoidal dose-response model). From the curve generated, the concentration giving 50% inhibition is determined and reported.

The next assay deals with MCP-1. Kind of assay: MCSF-stimulation of human whole blood, MCP-1 levels by sandwich ELISA. Format: cell-based. The following applies: inhibitor 2 hours before MCSF 50 ng/ml, 22 hrs, MCP-1 in cell-free supernatants, read-out: Inhibitor activity versus MCP-1. The procedure:
Macrophage Colony-Stimulating Factor (MCSF)-Stimulation of Human Whole Blood
Whole blood was taken by venous puncture using heparinised vacutainers (Becton Dickinson) and diluted in an equal volume of RPMI1640 tissue culture media (Sigma). 100 μl was plated in V-bottomed 96 well tissue culture treated plates. 2 hours after the addition of the inhibitor in 100 μl of RPMI1640 media, the blood was stimulated with MCSF (Peprotech: #300-25-10 uG) at a final concentration of 50 ng/ml and incubated at 37° C. in 5% CO2 for 22 hrs. MCP-1 levels were measured from cell-free supernatants by sandwich ELISA developed from MCP-1/CCL2 Duoset (R&D Systems #DY279). Additional reagents required for ELISA were purchased from Sigma, (BSA: A3059, 10×PBS: D1408, Tween20: P5927) R&D Systems, (colour reagent: #DY999 and stop solution: #DY994) and Costar (96-well EIA plates: #2592). Assays were carried out following the manufacturer's instructions with the following modifications: Cell-free supernatants were diluted 30:70 in reagent diluent before assay. All incubations except capture antibody were carried out with shaking at 550 rpm. 3 washes were carried out between steps, and incubation times were blocking 1.5 hr, sample/standard and detection antibody incubations 2 hr, HRP incubation 30 min, colour development 20 min. • IC50 values were allocated to one of five ranges as follows: • Range A: IC50<100 nM • Range B: 100 nM<IC50<300 nM • Range C: 300 nM<1050<1000 nM • Range D: 1000 nM<IC50<5000 nM • Range E: IC50>5000 nM • NT=not tested
A general note: An ELISA detects its analyte on a solid surface through an enzyme-linked reagent.

T1 sequence (P07333 20-972): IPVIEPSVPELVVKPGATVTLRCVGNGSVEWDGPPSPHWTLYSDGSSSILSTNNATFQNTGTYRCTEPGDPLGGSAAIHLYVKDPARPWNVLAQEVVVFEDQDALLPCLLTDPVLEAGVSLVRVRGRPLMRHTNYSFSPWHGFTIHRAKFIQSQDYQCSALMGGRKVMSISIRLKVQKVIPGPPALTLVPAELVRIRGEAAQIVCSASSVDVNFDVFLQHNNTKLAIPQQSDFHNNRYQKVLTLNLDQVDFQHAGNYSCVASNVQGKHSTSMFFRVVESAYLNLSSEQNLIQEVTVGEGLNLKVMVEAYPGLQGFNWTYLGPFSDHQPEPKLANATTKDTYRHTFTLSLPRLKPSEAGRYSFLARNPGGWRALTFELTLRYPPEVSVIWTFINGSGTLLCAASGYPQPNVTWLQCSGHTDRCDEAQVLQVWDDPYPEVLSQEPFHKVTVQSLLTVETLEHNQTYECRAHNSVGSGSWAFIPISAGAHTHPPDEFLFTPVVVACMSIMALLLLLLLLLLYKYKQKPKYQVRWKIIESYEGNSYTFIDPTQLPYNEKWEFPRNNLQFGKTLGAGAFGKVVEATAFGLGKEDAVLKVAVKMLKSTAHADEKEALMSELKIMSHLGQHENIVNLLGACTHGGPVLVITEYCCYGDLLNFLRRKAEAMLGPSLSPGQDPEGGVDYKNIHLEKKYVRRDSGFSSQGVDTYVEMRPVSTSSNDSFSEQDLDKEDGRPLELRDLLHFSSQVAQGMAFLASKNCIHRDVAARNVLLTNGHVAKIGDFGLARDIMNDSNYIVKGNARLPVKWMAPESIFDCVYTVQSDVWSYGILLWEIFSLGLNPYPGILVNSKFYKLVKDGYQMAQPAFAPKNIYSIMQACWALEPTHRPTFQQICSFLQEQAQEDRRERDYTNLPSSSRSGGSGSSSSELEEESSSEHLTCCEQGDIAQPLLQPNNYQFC

As to `Nc1ncc(-c2ccc(CN3CCN[C@@H](C(=O)OC4CCCC4)C3)cc2)nc1NCc1c(Cl)cccc1Cl` [Example 11, Cyclopentyl (2R)-4-(4-{5-amino-6-[(2,6-dichlorobenzyl)amino]pyrazin-2-yl}benzyl)piperazine-2-carboxylate], the IC50 at CSF1R (FMS) was 0.3 to 1 µM; in the assay on MCP-1, less than 0.1 µM.
The like results for `Nc1ncc(-c2ccc(CNC3CCN[C@@H](C(=O)OC4CCCC4)C3)cc2)nc1NCc1c(F)cccc1F` (stereo partly drawn) [Example 14, Cyclopentyl (2R)-4-[(4-{5-amino-6-[(2,6-difluorobenzyl)amino]pyrazin-2-yl}benzyl)amino]piperidine-2-carboxylate di-formate] were, in that order, 0.1 to 0.3 µM and 0.3 to 1 µM.
As for `Nc1ncc(-c2ccc(CNC3CCN[C@@H](C(=O)OC4CCCC4)C3)c(Cl)c2)nc1NCc1c(Cl)cccc1Cl` (stereo partly drawn) [Example 18, Cyclopentyl (2R)-4-[(4-{5-amino-6-[(2,6-dichlorobenzyl)amino]pyrazin-2-yl}-2-chlorobenzyl)amino]piperidine-2-carboxylate], the IC50 on CSF1R (FMS) and with MCP-1 was 0.1 to 0.3 µM in each case.
As to `Cc1cc(-c2cnc(N)c(NCc3c(Cl)cccc3Cl)n2)ccc1CNC1CCN[C@@H](C(=O)OC2CCCC2)C1` (stereo partly drawn) [Example 19, Cyclopentyl (2R)-4-[(4-{5-amino-6-[(2,6-dichlorobenzyl)amino]pyrazin-2-yl}-2-methylbenzyl)amino]piperidine-2-carboxylate], the IC50 at CSF1R (FMS) and in the assay on MCP-1 was less than 0.1 µM throughout.
Turning to `CCc1cc(-c2cnc(N)c(NCc3c(Cl)cccc3Cl)n2)ccc1CN1CCNC(C(=O)OC2CCCC2)C1` (stereo not shown) [Example 20, Cyclopentyl 4-(4-{5-amino-6-[(2,6-dichlorobenzyl)amino]pyrazin-2-yl}-2-ethylbenzyl)piperazine-2-carboxylate], the IC50 on CSF1R (FMS) was 1 to 5 µM; with MCP-1, less than 0.1 µM.
In the case of `CC(C)(C)OC(=O)[C@H]1CC(NCc2ccc(-c3cnc(N)c(NCc4c(Cl)cccc4Cl)n3)cc2)CCN1` (stereo partly drawn) [Example 21, tert-Butyl (2R)-4-[(4-{5-amino-6-[(2,6-dichlorobenzyl)amino]pyrazin-2-yl}benzyl)amino]piperidine-2-carboxylate], the values for the IC50 at CSF1R (FMS) and in the assay on MCP-1 were less than 0.1 µM and 0.3 to 1 µM, respectively.
Turning to `CC(C)(C)OC(=O)[C@@H]1CC(NCc2ccc(-c3cnc(N)c(NCc4c(Cl)cccc4Cl)n3)cc2)CCN1` (stereo partly drawn) [Example 22, tert-Butyl (2S)-4-[(4-{5-amino-6-[(2,6-dichlorobenzyl)amino]pyrazin-2-yl}benzyl)amino]piperidine-2-carboxylate], the results for the IC50 on CSF1R (FMS) and in the assay with MCP-1 were less than 0.1 µM and 0.3 to 1 µM, respectively.
With `CC(C)(C)OC(=O)C1CN(Cc2ccc(-c3cnc(N)c(NCc4c(Cl)cccc4Cl)n3)cc2)CCN1` (stereo not shown) [Example 23, tert-Butyl 4-(4-{5-amino-6-[(2,6-dichlorobenzyl)amino]pyrazin-2-yl}benzyl)piperazine-2-carboxylate], the IC50 on CSF1R (FMS) and with MCP-1 was 0.3 to 1 µM each time.
With `CC(C)(C)OC(=O)[C@H]1CC(NCc2ccc(-c3cnc(N)c(NCc4c(Cl)cccc4Cl)n3)cc2Cl)CCN1` (stereo partly drawn) [Example 25, tert-Butyl (2R)-4-[(4-{5-amino-6-[(2,6-dichlorobenzyl)amino]pyrazin-2-yl}-2-chlorobenzyl)amino]piperidine-2-carboxylate], the IC50 at CSF1R (FMS) lay within 0.1 to 0.3 µM; with MCP-1, 0.3 to 1 µM.
On the same counts, the results for `Cc1cc(-c2cnc(N)c(NCc3c(Cl)cccc3Cl)n2)ccc1CNC1CCN[C@@H](C(=O)OC(C)(C)C)C1` (stereo partly drawn) [Example 26, tert-Butyl (2R)-4-[(4-{5-amino-6-[(2,6-dichlorobenzyl)amino]pyrazin-2-yl}-2-methylbenzyl)amino]piperidine-2-carboxylate] are less than 0.1 µM and 0.3 to 1 µM.
With `CCN(Cc1ccc(-c2cnc(N)c(NCc3c(Cl)cccc3Cl)n2)cc1)C1CCN[C@@H](C(=O)OC2CCCC2)C1` (stereo partly drawn) [Example 27, Cyclopentyl (2R)-4-[(4-{5-amino-6-[(2,6-dichlorobenzyl)amino]pyrazin-2-yl}benzyl)(ethyl)amino]piperidine-2-carboxylate], the IC50 at CSF1R (FMS) was 0.1 to 0.3 µM; with MCP-1, less than 0.1 µM.
As for `CN(Cc1ccc(-c2cnc(N)c(NCc3c(Cl)cccc3Cl)n2)cc1)C1CCN[C@@H](C(=O)OC2CCCC2)C1` (stereo partly drawn) [Example 28, Cyclopentyl (2R)-4-[(4-{5-amino-6-[(2,6-dichlorobenzyl)amino]pyrazin-2-yl}benzyl)(methyl)amino]piperidine-2-carboxylate], the values for the IC50 at CSF1R (FMS) and with MCP-1 were 0.1 to 0.3 µM and less than 0.1 µM, respectively.
On the same counts, the results for `CCN(Cc1ccc(-c2cnc(N)c(NCc3c(Cl)cccc3Cl)n2)cc1)C1CCN[C@@H](C(=O)OC(C)(C)C)C1` (stereo partly drawn) [Example 30, tert-Butyl (2R)-4-[(4-{5-amino-6-[(2,6-dichlorobenzyl)amino]pyrazin-2-yl}benzyl)(ethyl)amino]piperidine-2-carboxylate] are 0.1 to 0.3 µM and 0.1 to 0.3 µM.
The like results for `CC(=O)N(Cc1ccc(-c2cnc(N)c(NCc3c(Cl)cccc3Cl)n2)cc1)C1CCN[C@@H](C(=O)OC2CCCC2)C1` (stereo partly drawn) [Example 31, Cyclopentyl (2R)-4-[acetyl(4-{5-amino-6-[(2,6-dichlorobenzyl)amino]pyrazin-2-yl}benzyl)amino]piperidine-2-carboxylate] were, in that order, 0.1 to 0.3 µM and less than 0.1 µM.
The like results for `Nc1ncc(-c2cccc(C(=O)NC3CCN[C@@H](C(=O)OC4CCCC4)C3)c2)nc1NCc1c(Cl)cccc1Cl` (stereo partly drawn) [Example 32, Cyclopentyl (2R)-4-[(3-{5-amino-6-[(2,6-dichlorobenzyl)amino]pyrazin-2-yl}benzoyl)amino]piperidine-2-carboxylate] were, in that order, 0.1 to 0.3 µM and 1 to 5 µM.
Consider `CC(C)(C)OC(=O)[C@H]1CC(NC(=O)c2cccc(-c3cnc(N)c(NCc4c(Cl)cccc4Cl)n3)c2)CCN1` (stereo partly drawn) [Example 33, tert-Butyl (2R)-4-[(3-{5-amino-6-[(2,6-dichlorobenzyl)amino]pyrazin-2-yl}benzoyl)amino]piperidine-2-carboxylate], for which the IC50 on CSF1R (FMS) is 0.1 to 0.3 µM; with MCP-1, 1 to 5 µM.
The like results for `Nc1ncc(-c2cccc(CNC3CCN[C@@H](C(=O)OC4CCCC4)C3)c2)nc1NCc1c(Cl)cccc1Cl` (stereo partly drawn) [Example 34, Cyclopentyl (2R)-4-[(3-{5-amino-6-[(2,6-dichlorobenzyl)amino]pyrazin-2-yl}benzyl)amino]piperidine-2-carboxylate] were, in that order, less than 0.1 µM and 0.1 to 0.3 µM.
On to `Nc1ncc(-c2cccc(CNC3CCN[C@H](C(=O)OC4CCCC4)C3)c2)nc1NCc1c(Cl)cccc1Cl` (stereo partly drawn) [Example 35, Cyclopentyl (2S)-4-[(3-{5-amino-6-[(2,6-dichlorobenzyl)amino]pyrazin-2-yl}benzyl)amino]piperidine-2-carboxylate di-formate], for which the figures for the IC50 at CSF1R (FMS) and in the assay on MCP-1 were less than 0.1 µM and 0.3 to 1 µM, respectively.
On the same counts, the results for `Nc1ncc(-c2cccc(CN3CCN[C@H](C(=O)OC4CCCC4)C3)c2)nc1NCc1c(Cl)cccc1Cl` [Example 36, Cyclopentyl (2S)-4-(3-{5-amino-6-[(2,6-dichlorobenzyl)amino]pyrazin-2-yl}benzyl)piperazine-2-carboxylate] are 0.3 to 1 µM and 0.1 to 0.3 µM.
On the same counts, the results for `Nc1ncc(-c2cccc(CN3CCN[C@@H](C(=O)OC4CCCC4)C3)c2)nc1NCc1c(Cl)cccc1Cl` [Example 37, Cyclopentyl (2R)-4-(3-{5-amino-6-[(2,6-dichlorobenzyl)amino]pyrazin-2-yl}benzyl)piperazine-2-carboxylate] are 0.3 to 1 µM and less than 0.1 µM.
